# Measured values taken from patent publication US11103602B2, “PET imaging of zinc transport” (Mayo Foundation for Medical Education and Research, priority 2013, dated 2021).
# Where “and” joins values, the source holds several entries; their conditions need not be identical. Identical values can stand only once.
# Columns and labels:
# [1] = Pharmacokinetics of ^63Zn Citrate in cerebral cortical region of interest; format: in vivo, human; settings: for Vascular clearance phase in cerebral cortical region of interest: post-injection
# [2] = Biodistribution of ^63Zn citrate in normal mice; format: in vivo
# [3] = Biodistribution of ^63Zn citrate in normal mice; format: in vivo; remark: listed apart in the source
# Description: Uptake may be measured in units of Standardized Uptake Value (SUV)=(uptake/g tissue)/(injected dose/g body mass).
# Biodistribution characteristics of ^63Zn citrate were investigated in male B6.SJL mice (n=4) (Jackson Laboratories, Bar Harbor, Me., USA) under the approval of the Mayo Clinic Institutional Animal Care and Use Committee. Animals were administered ^63Zn citrate (˜1.8-3.6 MBq) into a tail vein and euthanized at 60 minutes for biodistribution analysis. Tissues were weighed and counted for radioactivity. Biodistribution data were expressed as Standard Uptake Value (SUV)=(counts/g)tissue/(injected dose counts/wt. of mouse (g)).
# Biodistribution data was expressed as mean±sd. Statistical comparison of analytical data between groups of runs was performed using the two-tailed Student's T-test. Statistical comparison of intracerebral regional uptake of ^63Zn was performed using ANOVA. P-values <0.05 were considered statistically significant.
# [4] = Pharmacokinetics of ^63Zn Citrate in blood and plasma of an Alzheimer's disease patient; format: in vivo, human
# Description: Venous blood samples were taken in heparinized tubes after injection of radiotracer. The samples were centrifuged, and plasma separated. The curves show a rapid clearance of ^63Zn from the blood that is completed by 90 minutes. After this time, the concentrations of ^63Zn in both plasma and whole blood are relatively constant. The concentration of ^63Zn in whole-blood rises relative to plasma to reach equilibrium at around 90 minutes post-injection.
# [5] = PET images of ^63Zn Citrate in human subjects; format: in vivo
# Excerpt: High uptake is seen in liver, pancreas, spleen, intestines, and thyroid.
# [6] = cited from earlier work
# [7] = brain at 30 minutes; vs Be, Sc, V, Cr, Mn, Fe, Co, As, Se, Rb, Sr, Y, Zr, Tc, Ru; cited from earlier work
# [8] = subject with Alzheimer's disease
# [9] = individual normal (Wild) mice 1-5, 1 hour after IV
# [10] = individual normal (Wild) mice 3-5, 1 hour after IV
# [11] = mean of normal mice, 1 hour after IV
# [12] = mean of normal mice, 1 hour after IV, listed as 63Zn
# [13] = mean of normal mice, 1 hour after IV, listed as 63Zn Citrate
structure (smiles),measurement,setting,value
O=C([O-])CC(O)(CC(=O)[O-])C(=O)[O-].O=C([O-])CC(O)(CC(=O)[O-])C(=O)[O-].[63Zn+2].[63Zn+2].[63Zn+2] [^63Zn citrate],Clearance from the cortical brain region between 50 minutes and 90 minutes,[1]; healthy elderly subject,little clearance
same,Vascular clearance phase in cerebral cortical region of interest,[1]; healthy elderly subject,rapid vascular clearance phase in the first minute
same,Clearance from the cortical brain region between 50 minutes and 90 minutes,[1]; [8],little clearance
same,Vascular clearance phase in cerebral cortical region of interest,[1]; [8],rapid vascular clearance phase in the first minute
same,Brain penetration (in words),"[2]; five normal male mice, IV, 1 hour",brain penetrant
same,"SUV, Bladder",[2]; [9],1.27 SUV and 3.66 SUV and 1.13 SUV and 0.73 SUV and 0.18 SUV
same,"SUV, Blood",[2]; [9],0.47 SUV and 0.36 SUV and 0.94 SUV and 0.69 SUV and 0.38 SUV
same,"SUV, Bone",[2]; [9],0.72 SUV and 0.5 SUV and 1.11 SUV (2×) and 0.38 SUV
same,"SUV, Brain Stem",[2]; [9],0.25 SUV (2×) and 0.34 SUV and 0.32 SUV and 0.11 SUV
same,"SUV, Caudate Nuclei",[2]; [9],0.34 SUV and 0.23 SUV and 0.57 SUV and 0.63 SUV and 0.09 SUV
same,"SUV, Cerebellum",[2]; [9],0.27 SUV (2×) and 0.38 SUV and 0.49 SUV and 0.13 SUV
same,"SUV, Cortex",[2]; [9],0.2 SUV (2×) and 0.19 SUV and 0.27 SUV and 0.09 SUV
same,"SUV, Heart",[2]; [9],1.11 SUV (2×) and 1.47 SUV and 1.1 SUV and 0.82 SUV
same,"SUV, Hippocampus",[2]; [9],0.28 SUV and 0.24 SUV and 0.88 SUV and 0.87 SUV and 0.12 SUV
same,"SUV, Kidney",[2]; [9],3.8 SUV and 4.32 SUV and 6.01 SUV and 4.49 SUV and 2.42 SUV
same,"SUV, Liver",[2]; [9],6.18 SUV and 5.27 SUV and 8.72 SUV and 6.29 SUV and 3.4 SUV
same,"SUV, Lung",[2]; [9],2.67 SUV and 1.8 SUV and 2.54 SUV and 2.19 SUV and 1.13 SUV
same,"SUV, Muscle",[2]; [9],0.2 SUV and 0.19 SUV and 0.31 SUV and 0.26 SUV and 0.1 SUV
same,"SUV, Pancreas",[2]; [9],10.67 SUV and 5.25 SUV and 11.95 SUV and 10.68 SUV and 5.33 SUV
same,"SUV, Spleen",[2]; [9],2.37 SUV and 1.8 SUV and 3.71 SUV and 2.62 SUV and 0.97 SUV
same,"SUV, Thalamus",[2]; [9],0.29 SUV and 0.25 SUV and 0.38 SUV and 0.28 SUV and 0.11 SUV
same,"SUV, Upper Intestine",[2]; [9],3.02 SUV and 2.99 SUV and 7.66 SUV and 6.46 SUV and 3.47 SUV
same,"SUV, Whole Brain",[2]; [9],0.25 SUV and 0.23 SUV and 0.35 SUV and 0.3 SUV and 0.1 SUV
same,"SUV, Prostate",[2]; [10],0.47 SUV and 0.85 SUV and 0.44 SUV
same,"SUV, Seminal Vesicle",[2]; [10],1.397 SUV and 2.588 SUV and 1.09 SUV
same,"SUV, Bladder, Average",[2]; [11],1.39 SUV
same,"SUV, Blood, Average",[2]; [11],0.57 ± 0.25 SUV
same,"SUV, Bone, Average",[2]; [11],0.76 ± 0.34 SUV
same,"SUV, Brain Stem, Average",[2]; [11],0.25 ± 0.09 SUV
same,"SUV, Caudate Nuclei, Average",[2]; [11],0.37 ± 0.23 SUV
same,"SUV, Cerebellum, Average",[2]; [11],0.31 ± 0.14 SUV
same,"SUV, Cortex, Average",[2]; [11],0.19 ± 0.07 SUV
same,"SUV, Heart, Average",[2]; [11],1.12 ± 0.23 SUV
same,"SUV, Hippocampus, Average",[2]; [11],0.48 ± 0.37 SUV
same,"SUV, Liver, Average",[2]; [11],6.0±1.9 SUV and 5.97 ± 1.92 SUV
same,"SUV, Lung, Average",[2]; [11],2.06 ± 0.62 SUV
same,"SUV, Muscle, Average",[2]; [11],0.21 ± 0.08 SUV
same,"SUV, Pancreas, Average",[2]; [11],8.8±3.2 SUV and 8.78 ± 3.22 SUV
same,"SUV, Prostate, Average",[2]; [11],0.58 ± 0.23 SUV
same,"SUV, Seminal Vesicle, Average",[2]; [11],1.69 ± 0.79 SUV
same,"SUV, Spleen, Average",[2]; [11],2.30 ± 1.01 SUV
same,"SUV, Thalamus, Average",[2]; [11],0.26 ± 0.10 SUV
same,"SUV, Upper Intestine, Average",[2]; [11],4.7±2.1 SUV and 4.72 ± 2.18 SUV
same,"SUV, Whole Brain, Average",[2]; [11],0.24 ± 0.09 SUV
same,"SUV, Pancreas, Average",[2]; [12],8.8±3.2 SUV
same,"SUV, Whole Brain, Average",[2]; [12],0.24±0.09 SUV
same,"SUV, Blood, Average",[2]; [13],0.57 SUV
same,"SUV, Bone, Average",[2]; [13],0.76 SUV
same,"SUV, Brain Stem, Average",[2]; [13],0.25 SUV
same,"SUV, Caudate Nuclei, Average",[2]; [13],0.37 SUV
same,"SUV, Cerebellum, Average",[2]; [13],0.31 SUV
same,"SUV, Cortex, Average",[2]; [13],0.19 SUV
same,"SUV, Heart, Average",[2]; [13],1.12 SUV
same,"SUV, Hippocampus, Average",[2]; [13],0.48 SUV
same,"SUV, Kidney, Average",[2]; [13],4.21 SUV
same,"SUV, Liver, Average",[2]; [13],5.97 SUV
same,"SUV, Lung, Average",[2]; [13],2.06 SUV
same,"SUV, Muscle, Average",[2]; [13],0.21 SUV
same,"SUV, Pancreas, Average",[2]; [13],8.78 SUV
same,"SUV, Prostate, Average",[2]; [13],0.58 SUV
same,"SUV, Seminal Vesicle, Average",[2]; [13],1.69 SUV
same,"SUV, Spleen, Average",[2]; [13],2.3 SUV
same,"SUV, Thalamus, Average",[2]; [13],0.26 SUV
same,"SUV, Upper Intestine, Average",[2]; [13],4.72 SUV
same,"SUV, Whole Brain, Average",[2]; [13],0.24 SUV
same,"SUV, Kidney, Average",[3]; [11],4.2±1.3 SUV and 4.21 ± 1.30 SUV
same,Differences in SUVs between intracerebral regions (ANOVA),"[3]; normal mice, 1 hour",did not show statistically significant differences
same,"Uptake in pancreas, liver, kidneys, upper intestines, prostate and seminal vesicles (in words)","[3]; normal mice, 1 hour after IV",high uptake
same,Uptake in brain regions (regional SUVs),"[3]; normal mice, 1 hour after IV, span over brain regions",0.2-0.5 SUV
same,Murine brain uptake (in words),"[3]; normal mice, 60 minutes","moderately low, but significant"
same,Time at which whole-blood concentration relative to plasma reaches equilibrium,[4]; post-injection,around 90 minutes
same,Time by which clearance from the blood is completed,[4]; venous blood samples after injection,≤ 90 min
same,"Uptake in cerebral cortex, prostate, pituitary gland, and salivary glands (PET)",[5]; Alzheimer's disease subject,Moderate to low uptake
same,"Uptake in liver, pancreas, spleen, intestines, and thyroid (PET)",[5]; Alzheimer's disease subject,High uptake
same,"Uptake in cerebral cortex, pituitary gland, and salivary glands (PET)",[5]; healthy elderly human subject,Moderate to low uptake
same,"Uptake in liver, pancreas, spleen, intestines, and thyroid (PET)",[5]; healthy elderly human subject,High uptake
CN(C)Cc1ccc2c(Cl)cc(Cl)c(O)c2n1 [PBT2],Levels of AβO and p-Tau in the cerebrospinal fluid (CSF),[6]; AD patients treated for a 12-week period,significantly decreased
same,Cognitive test scores,"[6]; AD patients, 12-week period, highest dose level (250 mg daily)",significant improvement
[65Zn] [^65Zn],Zinc uptake in brain relative to the other metal ions measured,[7],several fold higher
